Experimental data as given in publication PMC10609219 (Molecules, 2023).

Target: T1, DPP-4 (Homo sapiens, UniProt P27487)
T1 construct: gene DPP4
Experiment: fluorogenic enzyme inhibition assay (Cayman DPP-4 inhibitor screening kit)
Type: biochemical

T1 sequence (P27487 39-766): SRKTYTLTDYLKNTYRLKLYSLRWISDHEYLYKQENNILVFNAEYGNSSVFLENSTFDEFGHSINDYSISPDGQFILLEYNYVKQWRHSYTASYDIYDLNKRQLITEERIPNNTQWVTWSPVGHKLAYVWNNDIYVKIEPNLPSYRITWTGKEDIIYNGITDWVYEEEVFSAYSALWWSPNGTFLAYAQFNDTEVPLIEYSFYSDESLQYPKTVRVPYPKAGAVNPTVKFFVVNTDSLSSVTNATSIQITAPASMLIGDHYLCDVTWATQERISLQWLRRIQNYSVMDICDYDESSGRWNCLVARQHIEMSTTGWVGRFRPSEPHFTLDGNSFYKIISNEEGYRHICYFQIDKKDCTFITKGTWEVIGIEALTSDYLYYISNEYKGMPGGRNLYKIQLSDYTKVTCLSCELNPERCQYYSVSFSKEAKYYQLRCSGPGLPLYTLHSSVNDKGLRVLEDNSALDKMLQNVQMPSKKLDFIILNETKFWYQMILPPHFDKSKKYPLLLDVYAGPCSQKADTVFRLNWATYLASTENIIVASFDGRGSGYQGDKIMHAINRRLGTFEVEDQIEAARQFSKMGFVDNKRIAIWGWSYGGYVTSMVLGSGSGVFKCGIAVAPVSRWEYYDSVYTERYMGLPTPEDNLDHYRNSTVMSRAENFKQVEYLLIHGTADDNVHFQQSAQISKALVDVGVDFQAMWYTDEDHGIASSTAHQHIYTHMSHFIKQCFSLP

## O=C(O)/C=C/c1ccc(O)c(O)c1 [caffeic acid, (E)-3-(3,4-dihydroxyphenyl)prop-2-enoic acid]
  IC50: 158 ± 11.3 µM
